Here are results for 24 compounds from patent US20230051589A1, “COMPOUNDS AND COMPOSITIONS FOR TREATING CONDITIONS ASSOCIATED WITH NLRP ACTIVITY” (Novartis AG, priority 2018, published 2023).

Like-named read-outs stand apart in the source and are kept apart here.

The experiment deals with IL-1β production in PMA-differentiated THP-1 cells. Briefly: IL-1β production in PMA-differentiated THP-1 cells stimulated with gramicidin (hTHP-1 assay, 2% fetal bovine serum; Procedures 1-3). The class given is cell-based, human. The procedure: The following protocol is suitable for testing the activity of the compounds disclosed herein.
Procedure 1: IL-1β Production in PMA-Differentiated THP-1 Cells Stimulated with Gramicidin.
THP-1 cells were purchased from the American Type Culture Collection and sub-cultured according to instructions from the supplier. Cells were cultured in complete RPMI 1640 (containing 10% heat inactivated FBS, penicillin (100 units/ml) and streptomycin (100 μg/ml)), and maintained in log phase prior to experimental setup. Prior to the experiment, compounds were dissolved in dimethyl sulfoxide (DMSO) to generate a 30 mM stock. The compound stock was first pre-diluted in DMSO to 3, 0.34, 0.042 and 0.0083 mM intermediate concentrations and subsequently spotted using Echo550 liquid handler into an empty 384-well assay plate to achieve desired final concentration (e.g. 100, 33, 11, 3.7, 1.2, 0.41, 0.14, 0.046, 0.015, 0.0051, 0.0017 μM). DMSO was backfilled in the plate to achieve a final DMSO assay concentration of 0.37%. The plate was then sealed and stored at room temperature until required.
THP-1 cells were treated with PMA (Phorbol 12-myristate 13-acetate) (20 ng/ml) for 16-18 hours. On the day of the experiment the media was removed and adherent cells were detached with trypsin for 5 minutes. Cells were then harvested, washed with complete RPMI 1640, spun down, and resuspended in RPMI 1640 (containing 2% heat inactivated FBS, penicillin (100 units/ml) and streptomycin (100 μg/ml). The cells were plated in the 384-well assay plate containing the spotted compounds at a density of 50,000 cells/well (final assay volume 50 μl). Cells were incubated with compounds for 1 hour and then stimulated with gramicidin (5 μM) (Enzo) for 2 hours. Plates were then centrifuged at 340 g for 5 min. Cell free supernatant (40 μL) was collected using a 96-channel PlateMaster (Gilson) and the production of IL-1β was evaluated by HTRF (cisbio). The plates were incubated for 18 h at 4° C. and read using the preset HTRF program (donor emission at 620 nm, acceptor emission at 668 nm) of the SpectraMax i3x spectrophotometer (Molecular Devices, software SoftMax 6). A vehicle only control and a dose titration of CRID3 (100-0.0017 μM) were run concurrently with each experiment.
Procedure 2: IL-1β Production in PMA-Differentiated THP-1 Cells Stimulated with Gramicidin.
THP-1 cells were purchased from the American Type Culture Collection and sub-cultured according to instructions from the supplier. Prior to experiments, cells were cultured in complete RPMI 1640 (containing 10% heat inactivated FBS, penicillin (100 units/ml) and streptomycin (100 μg/ml)), and maintained in log phase prior to experimental setup. Prior to the experiment THP-1 were treated with PMA (Phorbol 12-myristate 13-acetate) (20 ng/ml) for 16-18 hours. Compounds were dissolved in dimethyl sulfoxide (DMSO) to generate a 30 mM stock. On the day of the experiment the media was removed and adherent cells were detached with trypsin for 5 minutes. Cells were then harvested, washed with complete RPMI 1640, spun down, resuspended in RPMI 1640 (containing 2% heat inactivated FBS, penicillin (100 units/ml) and streptomycin (100 μg/ml) . The cells were plated in a 384-well plate at a density of 50,000 cells/well (final assay volume 50 μl). Compounds were first dissolved in assay medium to obtain a 5× top concentration of 500 μM. 10 step dilutions (1:3) were then undertaken in assay medium containing 1.67% DMSO. 5× compound solutions were added to the culture medium to achieve desired final concentration (e.g. 100, 33, 11, 3.7, 1.2, 0.41, 0.14, 0.046, 0.015, 0.0051, 0.0017 μM). Final DMSO concentration was at 0.37%. Cells were incubated with compounds for 1 hour and then stimulated with gramicidin (5 μM) (Enzo) for 2 hours. Plates were then centrifuged at 340 g for 5 min. Cell free supernatant (40 μL) was collected using a 96-channel PlateMaster (Gilson) and the production of IL-1β was evaluated by HTRF (cisbio). […]

[1] abbreviates: hTHP-1 assay containing 2% fetal bovine serum, Table B2, class symbols, read-out: IC50.
Setting [2] is: Homo sapiens, THP-1, Table B3, hTHP-1 assay containing 2% fetal bovine serum, gramicidin stimulation, IL-1β readout, read-out: hTHP-1 IC50.
The mark [3] stands for this setting: Homo sapiens, THP-1, Table B1, hTHP-1 assay containing 2% fetal bovine serum, gramicidin stimulation, IL-1β readout, read-out: hTHP-1 IC50 (average).
The mark [4] stands for this setting: Table B1, hTHP-1 assay containing 2% fetal bovine serum, gramicidin stimulation, IL-1β readout, read-out: hTHP-1 IC50 (average).

A word on the IC50: it is the concentration that gives 50% inhibition. With `CC(O)(CO)c1ncc(S(N)(=O)=NC(=O)Nc2c3c(c(C#N)c4c2CCC4)CCC3)s1` (mixture of isomers) [Example 635, (R,S) and (S,S)-N′-((8-cyano-1,2,3,5,6,7-hexahydro-indacen-4-yl)carbamoyl)-2-(1,2-dihydroxypropan-2-yl)thiazole-5-sulfonimidamide (mixture of two isomers)], the 50% inhibitory concentration (IC50) under setting [1] fell in the range of 5 to 30 µM.
Take `CC(OC(F)F)c1ccc(S(N)(=O)=NC(=O)Nc2c3c(cc4c2CCC4)CCC3)cc1` (mixture of isomers) [Example 639, (R,S) and (S,S)-4-(1-(difluoromethoxy)ethyl)-N′-((1,2,3,5,6,7-hexahydro-s-indacen-4-yl)carbamoyl) benzenesulfonimidamide (mixture of two isomers)]: the IC50 (Homo sapiens, THP-1, hTHP-1 assay containing 2% fetal bovine serum, Table B2, given as bound, read-out: IC50) is over 30 µM.
On to `NS(=O)(=NC(=O)Nc1c2c(cc3c1CCC3)CCC2)c1ccc(C2CCCN2)cc1` (mixture of isomers) [Example 649, (S,R) or (R,R) and (S,S) or (R,S)-N′-((1,2,3,5,6,7-hexahydro-s-indacen-4-yl)carbamoyl)-4-(pyrrolidin-2-yl) benzenesulfonimidamide (mixture of two isomers)], for which the concentration for half-maximal inhibition (IC50) under setting [1] was 5 to 30 µM.
Regarding `C[C@](O)(COCCOCc1ccccc1)c1ccc([S@@](N)(=O)=NC(=O)Nc2c3c(cc4c2CCC4)CCC3)s1` (racemic) [Example 746, (S)-5-((S)-1-(2-(benzyloxy)ethoxy)-2-hydroxypropan-2-yl)-N′-((1,2,3,5,6,7-hexahydro-s-indacen-4-yl)carbamoyl)thiophene-2-sulfonimidamide], the IC50 under setting [2] fell in the range of 0.2 to 1 µM.
Still for that read-out and setting: next, `C[C@](O)(COCCOCc1ccccc1)c1ccc(S(N)(=O)=NC(=O)Nc2c3c(cc4c2CCC4)CCC3)s1` (mixture of isomers) [Example 747, (S) and (R)-5-((S)-1-(2-(benzyloxy)ethoxy)-2-hydroxypropan-2-yl)-N′-((1,2,3,5,6,7-hexahydro-s-indacen-4-yl)carbamoyl)thiophene-2-sulfonimidamide]: 0.2 to 1 µM.
For the compound `C[C@@](O)(CO)c1cc(F)c([S@](N)(=O)=NC(=O)Nc2c3c(c(C#N)c4c2CCC4)CCC3)s1` (single isomer, unassigned) [Compound 411a], the IC50 under setting [3] lay in the range of 0.04 to 0.2 µM.
The same measure, in the same setting: the figure for `CNCc1cc(F)c(S(N)(=O)=NC(=O)Nc2c3c(cc4c2CCC4)CCC3)s1` (single isomer, unassigned) [Compound 412a] is 0.04 to 0.2 µM; for `CN1CCc2cc(S(N)(=O)=NC(=O)Nc3c4c(cc5c3CCC5)CCC4)sc2C1` (single isomer, unassigned) [Compound 413a] it is 0.04 to 0.2 µM.
Same read-out and setting: next, `Cc1oc(S(N)(=O)=NC(=O)Nc2c3c(cc4c2CCC4)CCC3)cc1C(C)(C)O` (single isomer, unassigned) [Example 3]: 0.2 to 1 µM.
`CC(C)(O)c1ncc(S(N)(=O)=NC(=O)Nc2c3c(cc4c2CCC4)CCC3)s1` (single isomer, unassigned) [Example 5]: the IC50 under setting [4] lay within 0.2 to 1 µM.
The same measure, in the same setting: the figure for `CC(C)(O)c1ncc(S(N)(=O)=NC(=O)Nc2c3c(cc4c2CCC4)CCC3)s1` (single isomer, unassigned) [Example 6] is 0.008 to 0.04 µM; for `CC(C)(O)c1ccc(S(N)(=O)=NC(=O)Nc2c3c(cc4c2CCC4)CCC3)c(F)c1` (single isomer, unassigned) [Example 87] it is 0.04 to 0.2 µM; for `CC(C)(O)c1csc(S(N)(=O)=NC(=O)Nc2c3c(c(Cl)c4c2CCC4)CCC3)c1` (single isomer, unassigned) [Example 89] it is 0.008 to 0.04 µM.
Still for that read-out and setting: next, `CC(C)c1cc(C#N)c(F)c(C(C)C)c1NC(=O)N=S(N)(=O)c1cnc(C(C)(C)O)s1` (single isomer, unassigned) [Example 91]: 0.04 to 0.2 µM; `CC(C)n1ccc(S(N)(=O)=NC(=O)Nc2c3c(cc4c2CCC4)CCC3)n1` (single isomer, unassigned) [Example 93]: 0.04 to 0.2 µM.
With `Cc1oc(S(N)(=O)=NC(=O)Nc2c3c(cc4c2CCC4C)CCC3)cc1C(C)(C)O` (single isomer, unassigned) [Example 125], the IC50 under setting [3] was 0.04 to 0.2 µM.
For the compound `CNS(=O)(=NC(=O)Nc1c2c(c(F)c3c1CCC3)CCC2)c1cc(C(C)(C)O)cs1` (single isomer, unassigned) [Example 181], under setting [4], the IC50 is 5 to 30 µM.
On the same count and under the same terms, next, `CC(C)c1cc(C#N)cc(C(C)C)c1NC(=O)N=S(N)(=O)c1cc(C(C)(C)O)cc(C(C)(C)O)c1` (single isomer, unassigned) [Example 198, N′-((4-cyano-2,6-diisopropylphenyl)carbamoyl)-3,5-bis(2-hydroxypropan-2-yl)benzenesulfonimidamide]: 5 to 30 µM.
`C#CCCC(=O)N(C)Cc1ccc(S(N)(=O)=NC(=O)Nc2c3c(cc4c2CCC4)CCC3)cc1` (single isomer, unassigned) [Example 312, (S) or (R)-N-(4-(N′-((1,2,3,5,6,7-hexahydro-s-indacen-4-yl)carbamoyl)-sulfamidimidoyl)benzyl)-N-methylpent-4-ynamide]: the IC50 under setting [3] is 1 to 5 µM.
`C#CCCC(=O)N(C)Cc1ccc(S(N)(=O)=NC(=O)Nc2c3c(cc4c2CCC4)CCC3)cc1` (single isomer, unassigned) [Example 313, (R) or (S)-N-(4-(N′-((1,2,3,5,6,7-hexahydro-s-indacen-4-yl)carbamoyl)-sulfamidimidoyl)benzyl)-N-methylpent-4-ynamide]: under setting [4], the IC50 was 1 to 5 µM.
In the case of `CC1CCc2c1cc1c(c2NC(=O)N=[S@@](N)(=O)c2cnc(C(C)(C)O)s2)CCC1` (single isomer, unassigned) [Example 323, (R, R) or (R, S)-2-(2-hydroxypropan-2-yl)-N′-((1-methyl-1,2,3,5,6,7-hexahydro-s-indacen-4-yl)carbamoyl)thiazole-5-sulfonimidamide], the IC50 under setting [3] was 0.04 to 0.2 µM.
The same measure, in the same setting: the figure for `CCc1ccc2cn(C)nc2c1NC(=O)N=S(N)(=O)c1ncc(C(C)(C)O)s1` (single isomer, unassigned) [Example 329, (S) or (R)-N′-((6-ethyl-2-methyl-2H-indazol-7-yl)-carbamoyl)-5-(2-hydroxy-propan-2-yl)thiazole-2-sulfonimidamide] is over 30 µM.
Turning to `CCc1ccc2cn(C)nc2c1NC(=O)N=S(N)(=O)c1ncc(C(C)(C)O)s1` (single isomer, unassigned) [Example 330, (R) or (S)-N′-((6-ethyl-2-methyl-2H-indazol-7-yl)-carbamoyl)-5-(2-hydroxy-propan-2-yl)thiazole-2-sulfonimidamide], the IC50 under setting [4] was over 30 µM.
The same measure, in the same setting: the figure for `CC(C)(O)c1ncc(S(N)(=O)=NC(=O)Nc2c3c(cc4c2CCC4=O)CCC3)s1` (single isomer, unassigned) [Example 336, (R) or (S)-2-(2-Hydroxy-propan-2-yl)-N′-((1-oxo-1,2,3,5,6,7-hexahydro-s-indacen-4-yl)carbamoyl)-thiazole-5-sulfonimidamide] is 0.2 to 1 µM.
